# In patent publication US20260102359A1, “COMBINATION TREATMENT OF DERMAL AND TRANSDERMAL FIBROTIC DISEASES, DISORDERS AND ASSOCIATED PAIN AND INFLAMMATION” (ERESINA, LLC, priority 2022, published 2026):
# Where a name gives a salt, the structure may show the parent alone.
# System: hDMFa myofibroblast cells
row,Compound,Compound Myofibroblast Cytotoxicity Activity
1,"N[C@@H](Cc1c[nH]cn1)C(=O)O [Cmpd 586, L-Histidine]",+
2,"CC1(C)Cc2c(-c3ccccc3)c(-c3ccc(Cl)cc3)c(CC(=O)O)n2C1 [Cmpd 588, Licofelone]",+++
3,"CCN(CC)CC(=O)Nc1c(C)cccc1C.Cl.O [Cmpd 589, Lidocaine hydrochloride monohydrate]",++
4,"CCCCC/C=C\C/C=C\CCCCCCCC(=O)O [Cmpd 591, Linoleic Acid]",+++
5,"C[C@]1(O)C[C@@H](c2nc(-c3ccc4ccc(-c5ccccc5)nc4c3)c3c(N)nccn32)C1 [Cmpd 592, Linsitinib]",+++
6,"CC[C@H](C)[C@H](N)C(=O)O [Cmpd 594, L-Isoleucine]",+
7,"O=C([O-])[O-].[Li+].[Li+] [Cmpd 595, Lithium carbonate]",++++
8,"CC(C)C[C@H](N)C(=O)O [Cmpd 596, L-Leucine]",+++
9,"CSCC[C@H](N)C(=O)O [Cmpd 600, L-Methionine]",++++
10,"CN(C)C(=O)C(CCN1CCC(O)(c2ccc(Cl)cc2)CC1)(c1ccccc1)c1ccccc1 [Cmpd 606, Loperamide HCl]",+++
11,"CC(C(=O)O)c1ccc(CC2CCCC2=O)cc1 (stereo not drawn) [Cmpd 611, Loxoprofen Sodium]",++
12,"O=C(O)[C@@H]1CCCN1 [Cmpd 612, L-Proline]",++++
13,"O=C1CC[C@@H](C(=O)O)N1 [Cmpd 613, L-Pyroglutamic acid]",++++
14,"C[C@@H](O)[C@H](N)C(=O)O [Cmpd 614, L-Threonine]",+++++
15,"N[C@@H](Cc1c[nH]c2ccccc12)C(=O)O [Cmpd 615, L-Tryptophan]",++
16,"CC(C)[C@H](N)C(=O)O [Cmpd 618, L-Valine]",++
17,"CCN1CCN(Cc2ccc(Nc3ncc(F)c(-c4cc(F)c5nc(C)n(C(C)C)c5c4)n3)nc2)CC1 [Cmpd 622, LY2835219 free base]",++++
18,"C[C@H]1[C@H](C)CC[C@]2(C(=O)O)CC[C@]3(C)C(=CC[C@@H]4[C@@]5(C)C[C@@H](O)[C@H](O)[C@@](C)(CO)[C@@H]5[C@H](O)C[C@]43C)[C@H]12 [Cmpd 625, Madecassic acid]",+++++
19,"NCc1ccc(S(N)(=O)=O)cc1 [Cmpd 626, Mafenide Acetate]",++++
20,"Cl.NCc1ccc(S(N)(=O)=O)cc1 [Cmpd 627, Mafenide hydrochloride]",++
21,"O=C(O)CC(=O)O [Cmpd 631, Malonic acid]",++++
22,"CC(C)OC(=O)C(C(=O)OC(C)C)=C1SC=CS1 [Cmpd 632, Malotilate]",++

row,Compound,Compound Myofibroblast Cytotoxicity Activity
1,"CNCCCC12CCC(c3ccccc31)c1ccccc12 [Cmpd 635, Maprotiline HCl]",+++
2,"Cc1cccc(O)c1 [Cmpd 636, m-Cresol]",++
3,"COC(=O)Nc1nc2ccc(C(=O)c3ccccc3)cc2[nH]1 [Cmpd 637, Mebendazole]",++++
4,"CCN(CCCCOC(=O)c1ccc(OC)c(OC)c1)C(C)Cc1ccc(OC)cc1.Cl (stereo not drawn) [Cmpd 638, Mebeverine Hydrochloride]",++
5,"CNC1(C)C2CCC(C2)C1(C)C.Cl (stereo not drawn) [Cmpd 639, Mecamylamine hydrochloride]",++++
6,"Cc1cccc(CN2CCN(C(c3ccccc3)c3ccc(Cl)cc3)CC2)c1.Cl.Cl (stereo not drawn) [Cmpd 641, Meclizine 2HCl]",++
7,"CC(=O)O[C@]1(C(C)=O)CC[C@H]2[C@@H]3C[C@H](C)C4=CC(=O)CC[C@]4(C)[C@H]3CC[C@@]21C [Cmpd 643, Medroxyprogesterone acetate]",++
8,"Cl.OC(c1cc(C(F)(F)F)nc2c(C(F)(F)F)cccc12)C1CCCCN1 (stereo not drawn) [Cmpd 644, Mefloquine hydrochloride]",++++
9,"CC(C)=CCC/C(C)=C/CC/C(C)=C/CC/C(C)=C/CC1=C(C)C(=O)c2ccccc2C1=O [Cmpd 652, Menaquinone 4]",++
10,"CC(=O)OC(C)C[N+](C)(C)C (stereo not drawn) [Cmpd 655, Methacholine chloride]",++
11,"COc1cccc(OC)c1C(=O)N[C@@H]1C(=O)N2[C@@H]1SC(C)(C)[C@@H]2C(=O)O [Cmpd 656, Methicillin (sodium salt)]",++
12,"CSCC[C@H](N)C(=O)O [Cmpd 657, Methionine]",++
13,"CN(Cc1cnc2nc(N)nc(N)c2n1)c1ccc(C(=O)N[C@@H](CCC(=O)[O-])C(=O)[O-])cc1.[Na+].[Na+] [Cmpd 658, Methotrexate disodium]",++
14,"COC(=O)c1ccccc1O [Cmpd 659, Methyl salicylate]",++
15,"CS(C)(=O)=O [Cmpd 660, Methyl Sulfonyl Methane (MSM)]",+
16,"C/C1=C2/[N-][C@H]([C@H](CC(N)=O)[C@@]2(C)CCC(=O)NC[C@@H](C)OP(=O)([O-])O[C@H]2[C@@H](O)[C@@H](n3cnc4cc(C)c(C)cc43)O[C@@H]2CO)[C@]2(C)N=C(/C(C)=C3N=C(/C=C4N=C1[C@@H](CCC(N)=O)C\4(C)C)[C@@H](CCC(N)=O)[C@]\3(C)CC(N)=O)[C@@H](CCC(N)=O)[C@]2(C)CC(N)=O.[CH3-].[Co+3] [Cmpd 662, Methylcobalamin]",++
17,"CN(C)c1ccc2nc3ccc(=[N+](C)C)cc-3sc2c1 [Cmpd 663, Methylene Blue]",+++++
18,"COC(=O)c1ccc(O)cc1 [Cmpd 664, Methylparaben]",++
19,"COCCc1ccc(OCC(O)CNC(C)C)cc1 (stereo not drawn) [Cmpd 665, Metoprolol Tartrate]",++
20,"CC(C)(C(=O)c1cccnc1)c1cccnc1 [Cmpd 667, Metyrapone]",++
21,"CC[C@H](C)C(=O)O[C@H]1CCC=C2C=C[C@H](C)[C@H](CC[C@@H]3C[C@@H](O)CC(=O)O3)[C@H]21 [Cmpd 668, Mevastatin]",+++
22,"Clc1ccc(COC(Cn2ccnc2)c2ccc(Cl)cc2Cl)c(Cl)c1 (stereo not drawn) [Cmpd 671, Miconazole]",+++

row,Compound,Compound Myofibroblast Cytotoxicity Activity
1,"Clc1ccc(COC(Cn2ccnc2)c2ccc(Cl)cc2Cl)c(Cl)c1 (stereo not drawn) [Cmpd 672, Miconazole Nitrate]",+++
2,"COc1ccc(OC)c(C(O)CNC(=O)CN)c1 (stereo not drawn) [Cmpd 673, Midodrine (hydrochloride)]",++++
3,"CO[C@@H]1[C@H](N(C)C(=O)c2ccccc2)C[C@H]2O[C@]1(C)n1c3ccccc3c3c4c(c5c6ccccc6n2c5c31)C(=O)NC4 [Cmpd 674, Midostaurin (PKC412)]",++
4,"CCN(CC)C(=O)C1(c2ccccc2)CC1CN (stereo not drawn) [Cmpd 676, Milnacipran HCl]",++++
5,"CCCCCCCCCCCCCCCCOP(=O)([O-])OCC[N+](C)(C)C [Cmpd 677, Miltefosine]",+++++
6,"N=c1nc(N2CCCCC2)cc(N)n1OS(=O)(=O)O [Cmpd 678, Minoxidil sulphate]",++
7,"CN1CCN2c3ncccc3Cc3ccccc3C2C1 (stereo not drawn) [Cmpd 679, Mirtazapine]",++++
8,"Clc1ccc(C(c2ccccc2Cl)C(Cl)Cl)cc1 (stereo not drawn) [Cmpd 681, Mitotane (Lsodren)]",+++
9,"O=C1c2c(O)ccc(O)c2C(=O)c2c(NCCNCCO)ccc(NCCNCCO)c21 [Cmpd 682, Mitoxantrone HCl]",+++++
10,"COc1cc(Nc2ncc3c(n2)-c2ccc(Cl)cc2C(c2c(F)cccc2OC)=NC3)ccc1C(=O)O [Cmpd 685, MLN8237 (Alisertib)]",++++
11,"O=c1c(-n2ccnn2)c[nH]n1-c1cc(N2CCOCC2)ncn1 [Cmpd 687, Molidustat (BAY85-3934)]",+++
12,"C[C@@H]1C[C@H]2[C@@H]3CCC4=CC(=O)C=C[C@]4(C)[C@@]3(Cl)[C@@H](O)C[C@]2(C)[C@@]1(OC(=O)c1ccco1)C(=O)CCl [Cmpd 688, Mometasone furoate]",++
13,"CC(C)(O)c1ccccc1CC[C@@H](SCC1(CC(=O)O)CC1)c1cccc(/C=C/c2ccc3ccc(Cl)cc3n2)c1 [Cmpd 689, Montelukast Sodium]",+++++
14,"CCCN(CCC)C(=O)C1=Cc2ccc(-c3ccc(C(=O)N4CCCC4)cc3)cc2N=C(N)C1 [Cmpd 690, Motolimod (VTX-2337)]",++
15,"O[C@H]1[C@H](O)[C@@H](O)[C@H](O)[C@@H](O)[C@H]1O [Cmpd 692, myo-Inositol]",++++
16,"CC(=O)N[C@@H](CS)C(=O)O [Cmpd 695, N-Acetyl-L-cysteine]",+
17,"CN(C/C=C/c1ccccc1)Cc1cccc2ccccc12 [Cmpd 696, Naftifine HCl]",++
18,"COc1ccccc1N1CCN(CC(O)COc2cccc3ccccc23)CC1 (stereo not drawn) [Cmpd 697, Naftopidil]",+++
19,"COc1ccc([C@@H]2CC(=O)c3c(O)cc(O[C@@H]4O[C@H](CO)[C@@H](O)[C@H](O)[C@H]4O[C@@H]4O[C@@H](C)[C@H](O)[C@@H](O)[C@H]4O)cc3O2)cc1O [Cmpd 702, Neohesperidin]",++
20,"NC(=O)c1cccnc1 [Cmpd 705, Niacinamide]",+
21,"COC(=O)C1=C(C)NC(C)=C(C(=O)OCCN(C)Cc2ccccc2)C1c1cccc([N+](=O)[O-])c1 (stereo not drawn) [Cmpd 706, Nicardipine HCl]",+++
22,"CO[C@]12C[C@@H](COC(=O)c3cncc(Br)c3)CN(C)[C@@H]1Cc1cn(C)c3cccc2c13 [Cmpd 707, Nicergoline]",++
